Measured values from patent US20230041563A1, “N-(1,3,4-OXADIAZOL-2-YL)ARYLCARBOXAMIDES OR SALTS THEREOF, PREPARATION METHODS, HERBICIDAL COMPOSITIONS AND USES THEREOF” (priority 2018, published 2023).

Experiments:
Rice = test: Transplanted rice safety evaluation and weed control effect evaluation in rice field; type: in vivo, rice (japonica rice/Indica rice); conditions: Table 8, dose 60 g a.i./ha
Procedure: (§1) Transplanted rice safety evaluation and weed control effect evaluation in rice field:
In addition, the rice field soil that loaded into the 1/1,000,000 ha pot was leveled to keep water storage at 3-4 cm depth. The 3 leaf stage rice (japonica rice/Indica rice) was transplanted at 3 cm of transplanting depth the next day. The compound of the present invention was treated by the same way after 5 days of transplantation.
(§2) The fertility condition of echinochloa crusgali, scirpus juncoides, Bidens tripartita, Leptochloa chinensis, Sagittaria trifolia and Monochoria vaginalis 14 days after the treatment of the compound of the invention and the fertility condition of rice 21 days after the treatment of the compound of the invention respectively with the naked eye. Evaluate the weed control effect with 0-5 activity standard level. Many compounds show excellent activity and selectivity.

Leptochloa chinensis = test: as above; type: in vivo
Source text: as §1
(§3) Rice field soil was loaded into a 1/1,000,000 ha pot. The seeds of echinochloa crusgali, scirpus juncoides, Bidens tripartita, Sagittaria trifolia, Monochoria vaginalis and Leptochloa chinensis were sowed and gently covered with soil, then left to stand still in greenhouse in the state of 0.5-1 cm of water storage. The tuber of Sagittaria trifolia was planted in the next day or 2 days later. It was kept at 3-4 cm of water storage thereafter. The weeds were treated by dripping the WP or SC water diluents prepared according to the common preparation method of the compounds of the present invention with pipette homogeneously to achieve specified effective amount when echinochloa crusgali, scirpus juncoides, Bidens tripartita, Monochoria vaginalis and Leptochloa chinensis reached 0.5 leaf stage and Sagittaria trifolia reached the time point of primary leaf stage.
as §2

Echinochloa crusgali = test: as above; type: in vivo
Source text: as §1, §3, §2

Sagittaria trifolia = test: as above; type: in vivo
Source text: as §1, §3, §2

Monochoria vaginalis = test: as above; type: in vivo
Source text: as §1, §3, §2

Setaria viridis = test: Weeding effect in post-emergence stage (greenhouse pot spray); type: in vivo
Summary of the method: (§4)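 Pot-grown greenhouse plants, 2-3 leaf stage; spray-tower application; formulation acetone/Tween 80 plus methyl oleate EC 1.5 liter/ha as synergist; rates 500, 250, 125, 60, 15 g a.i./ha; assessed 3 wk post-treatment as fresh weight control, n=3.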

Echinochloa crusgalli = test: as above; type: in vivo
Summary of the method: as §4

Digitaria sanguinalis = test: as above; type: in vivo
Summary of the method: as §4

weeds = test: Actual control effects and combined effects of mixtures of active ingredients (i) and (ii), stem-leaf treatment, Gowing method; type: in vivo; conditions: Cyperus difformis, 20 days

Row | Compound | Rice (safety level) (Rice) | Leptochloa chinensis (activity level) (Leptochloa chinensis; Table 8, dose 60 g a.i./ha) | Echinochloa crusgali (activity level) (Echinochloa crusgali; Table 8, dose 60 g a.i./ha) | Sagittaria trifolia (activity level) (Sagittaria trifolia; Table 8, dose 60 g a.i./ha) | Monochoria vaginalis (activity level) (Monochoria vaginalis; Table 8, dose 60 g a.i./ha) | Setaria viridis (activity level) (Setaria viridis; Table 3, dose 60 g a.i./ha) | Echinochloa crusgali (activity level) (Echinochloa crusgalli; Table 3, dose 60 g a.i./ha) | Digitaria sanguinahs (activity level) (Digitaria sanguinalis; Table 3, dose 60 g a.i./ha) | other results
1 | Cc1nnc(NC(=O)c2ccc(C(F)(F)F)c([S@@+]([O-])CC(C)C)c2F)o1 [1-20 (R-configuration)] | 0 (Level 0: growth control rate is less than 5%) | 5 (Level 5: growth control rate is above 85%) | 5 (Level 5: growth control rate is above 85%) | 5 (Level 5: growth control rate is above 85%) | 5 (Level 5: growth control rate is above 85%) |  |  |  | 
2 | CCCC[S@+]([O-])c1c(C(F)(F)F)ccc(C(=O)Nc2nnc(C)o2)c1F [1-14 (R-configuration)] | 0 (Level 0: growth control rate is less than 5%) | 5 (Level 5: growth control rate is above 85%) | 5 (Level 5: growth control rate is above 85%) | 5 (Level 5: growth control rate is above 85%) | 5 (Level 5: growth control rate is above 85%) | 5 (Level 5: growth control rate is above 85%) | 5 (Level 5: growth control rate is above 85%) | 5 (Level 5: growth control rate is above 85%) | Setaria viridis (activity level) (Setaria viridis; Table 3, dose 7.5 g a.i./ha): 4 (Level 4: growth control rate is greater than or equal to 60% and less than 85%); Setaria viridis (activity level) (Setaria viridis; Table 3, dose 15 g a.i./ha): 4 (Level 4: growth control rate is greater than or equal to 60% and less than 85%); Setaria viridis (activity level) (Setaria viridis; Table 3, dose 30 g a.i./ha): 5 (Level 5: growth control rate is above 85%); Echinochloa crusgali (activity level) (Echinochloa crusgalli; Table 3, dose 7.5 g a.i./ha): 5 (Level 5: growth control rate is above 85%); Echinochloa crusgali (activity level) (Echinochloa crusgalli; Table 3, dose 15 g a.i./ha): 5 (Level 5: growth control rate is above 85%); Echinochloa crusgali (activity level) (Echinochloa crusgalli; Table 3, dose 30 g a.i./ha): 5 (Level 5: growth control rate is above 85%); Digitaria sanguinahs (activity level) (Digitaria sanguinalis; Table 3, dose 7.5 g a.i./ha): 4 (Level 4: growth control rate is greater than or equal to 60% and less than 85%); Digitaria sanguinahs (activity level) (Digitaria sanguinalis; Table 3, dose 15 g a.i./ha): 5 (Level 5: growth control rate is above 85%); Digitaria sanguinahs (activity level) (Digitaria sanguinalis; Table 3, dose 30 g a.i./ha): 5 (Level 5: growth control rate is above 85%)
3 | Cc1nnc(NC(=O)c2ccc(C(F)(F)F)c([S@+]([O-])CCCCl)c2F)o1 [1-414 (R-configuration)] | 0 (Level 0: growth control rate is less than 5%) | 5 (Level 5: growth control rate is above 85%) | 5 (Level 5: growth control rate is above 85%) | 5 (Level 5: growth control rate is above 85%) | 5 (Level 5: growth control rate is above 85%) |  |  |  | Setaria viridis (activity level) (Setaria viridis; Table 3, dose 500 g a.i./ha): 5 (Level 5: growth control rate is above 85%); Echinochloa crusgali (activity level) (Echinochloa crusgalli; Table 3, dose 500 g a.i./ha): 5 (Level 5: growth control rate is above 85%); Digitaria sanguinahs (activity level) (Digitaria sanguinalis; Table 3, dose 500 g a.i./ha): 5 (Level 5: growth control rate is above 85%)
4 | Cc1nnc(NC(=O)c2ccc(C(F)(F)F)c([S@@+]([O-])CCCF)c2F)o1 [1-403 (R-configuration)] | 0 (Level 0: growth control rate is less than 5%) | 5 (Level 5: growth control rate is above 85%) | 5 (Level 5: growth control rate is above 85%) | 5 (Level 5: growth control rate is above 85%) | 5 (Level 5: growth control rate is above 85%) | 5 (Level 5: growth control rate is above 85%) | 5 (Level 5: growth control rate is above 85%) | 5 (Level 5: growth control rate is above 85%) | 
5 | Cc1nnc(NC(=O)c2ccc(C(F)(F)F)c([S@@+]([O-])C3COC3)c2F)o1 [1-82 (R-configuration)] | 0 (Level 0: growth control rate is less than 5%) | 5 (Level 5: growth control rate is above 85%) | 5 (Level 5: growth control rate is above 85%) | 5 (Level 5: growth control rate is above 85%) | 5 (Level 5: growth control rate is above 85%) |  |  |  | Setaria viridis (activity level) (Setaria viridis; Table 3, dose 125 g a.i./ha): 5 (Level 5: growth control rate is above 85%); Echinochloa crusgali (activity level) (Echinochloa crusgalli; Table 3, dose 125 g a.i./ha): 5 (Level 5: growth control rate is above 85%); Digitaria sanguinahs (activity level) (Digitaria sanguinalis; Table 3, dose 125 g a.i./ha): 5 (Level 5: growth control rate is above 85%)
6 | COc1cnc(OC)n2nc(NS(=O)(=O)c3c(OCC(F)F)cccc3C(F)(F)F)nc12 [Penoxsulam, reference compound] |  |  |  |  |  |  |  |  | pest or weed control at 15 g/ha (weeds; 480 h, (ii) 1 g a.i./mu, stem-leaf treatment, read-out: Control effect of (ii) alone at corresponding dose): 66.4%; pest or weed control at 27 g/ha (weeds; 480 h, (ii) 1.8 g a.i./mu, read-out: Control effect of (ii) alone at corresponding dose): 80.2%; Control effect of (ii) alone at corresponding dose (weeds; (ii) 1 g a.i./mu): 66.4%; Leptochloa chinensis (activity level) (Leptochloa chinensis; Table 8, 30 g a.i./ha): 1 (Level 1: growth control rate is greater than or equal to 5% and less than 20%); Echinochloa crusgali (activity level) (Echinochloa crusgali; Table 8, 30 g a.i./ha): 0 (Level 0: growth control rate is less than 5%); Sagittaria trifolia (activity level) (Sagittaria trifolia; Table 8, 30 g a.i./ha): 0 (Level 0: growth control rate is less than 5%); Monochoria vaginalis (activity level) (Monochoria vaginalis; Table 8, 30 g a.i./ha): 1 (Level 1: growth control rate is greater than or equal to 5% and less than 20%)
